These are literature values, as cited in patent US20090036693A1, “METHOD OF PURIFYING UBIQUINONE-10” (Kyowa Hakko Kogyo Co., Ltd., priority 2005, published 2009).

For the data set the following is noted: solvent methanol; background statement.

Turning to `COC1=C(OC)C(=O)C(C/C=C(\C)CC/C=C(\C)CC/C=C(\C)CC/C=C(\C)CC/C=C(\C)CC/C=C(\C)CC/C=C(\C)CC/C=C(\C)CC/C=C(\C)CCC=C(C)C)=C(C)C1=O` [ubiquinone-10], the solubility in methanol was no more than 5000 µg/mL.
